The values below are quoted from earlier work in patent US5688524A, “Transdermal formulations for administering prazosin” (Cygnus, Inc., priority 1993, dated 1997).

For data set [1] the following is noted: oral; incomplete absorption, GI degradation, first pass liver metabolism.
For data set [2], the system named is benign prostatic hypertrophy (BPH). The conditions noted are these: in vivo.

For the compound `COc1cc2nc(N3CCN(C(=O)c4ccco4)CC3)nc(N)c2cc1OC` [prazosin], the bioavailability result in data set [1] is reported as “incomplete bioavailability”. In data set [2], the “effect in treating benign prostatic hypertrophy (BPH)” value is “effective in treating benign prostatic hypertrophy (BPH)”.
